Source: ChEMBL document CHEMBL1201862, “PubChem BioAssay data set” (2004)
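Step 1: Grow cells in 96-well plates. Step 2: Expose to compound for 48 hours at 5 concentrations. Step 3: Interpolate endpoints linearly; if unreached, use highest concentration. Here, GI50 denotes the concentration required for 50% inhibition of growth.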 Active and inactive are the calls of the source. No stated cut-off is given here; in the data, active = GI50 up to about 1.1 µM and inactive = higher. Square brackets hold non-standard residues; d marks the D form. Peptide text beside a SMILES is read from it. * marks the point of attachment. Phe(4-NO2) = N[CH](Cc1ccc([N+](=O)[O-])cc1)C(=O)O; Cbz = O=C(OCc1ccccc1)*

Tests used:
Experiment in all cases: DTP human tumour cell line panel, 48 h
[1] = system: DMS-114
[2] = system: SK-MEL-5
[3] = system: MCF7
[4] = system: NCI-H460
[5] = system: NCI-H226
[6] = system: OVCAR-5
[7] = system: HOP-18
[8] = system: M19-MEL
[9] = system: SF-539
[10] = system: SW-620
[11] = system: NCI-H522
[12] = system: HOP-62
[13] = system: MOLT-4
[14] = system: KM-20L2
[15] = system: SNB-78
[16] = system: 786-0
[17] = system: BT-549
[18] = system: PC-3
[19] = system: Hs-578T
[20] = system: DU-145

Cc1ccc(N2C(=O)C3CSCN3C2=O)cc1 (stereo not given)
GI50 [1]: > 100 µM (inactive) | GI50 [2]: > 100 µM (inactive) | GI50 [3]: > 100 µM (inactive) | GI50 [4]: > 100 µM (inactive) | GI50 [5]: > 100 µM (inactive) | GI50 [6]: > 100 µM (inactive) | GI50 [7]: > 100 µM (inactive) | GI50 [8]: > 100 µM (inactive) | GI50 [9]: > 100 µM (inactive) | GI50 [10]: > 100 µM (inactive) | GI50 [11]: > 100 µM (inactive) | GI50 [12]: > 100 µM (inactive) | GI50 [13]: > 100 µM (inactive)

COC(=O)C(C(=O)C(=O)Nc1nnc(S)[nH]1)c1csc(-n2nc(-c3ccccc3)cc2-c2ccccc2)n1 (stereo not given)
GI50 [14]: > 100 µM (inactive) | GI50 [4]: > 100 µM (inactive) | GI50 [5]: > 100 µM (inactive) | GI50 [6]: > 100 µM (inactive) | GI50 [8]: > 100 µM (inactive) | GI50 [10]: > 100 µM (inactive) | GI50 [15]: > 100 µM (inactive) | GI50 [11]: > 100 µM (inactive) | GI50 [12]: > 100 µM (inactive) | GI50 [16]: > 100 µM (inactive) | GI50 [13]: > 100 µM (inactive)

CCOC(=O)C(C)NC(=O)NC12CC3CC(CC(F)(C3)C1)C2 (stereo not given)
GI50 [14]: > 100 µM (inactive) | GI50 [1]: > 100 µM (inactive) | GI50 [2]: 46 µM (inactive) | GI50 [4]: > 100 µM (inactive) | GI50 [6]: > 100 µM (inactive) | GI50 [8]: 61.1 µM (inactive) | GI50 [9]: > 100 µM (inactive) | GI50 [10]: > 100 µM (inactive) | GI50 [15]: 27.9 µM (inactive) | GI50 [11]: 65.2 µM (inactive) | GI50 [12]: > 100 µM (inactive) | GI50 [16]: > 100 µM (inactive) | GI50 [13]: 62.1 µM (inactive)

COc1ccc(/C(Cl)=C(\C=O)c2ccc(F)cc2)cc1OC
GI50 [14]: 16.2 µM (inactive) | GI50 [1]: 14.4 µM (inactive) | GI50 [2]: 15.3 µM (inactive) | GI50 [4]: 19.3 µM (inactive) | GI50 [5]: 14 µM (inactive) | GI50 [7]: 12.9 µM (inactive) | GI50 [8]: 21 µM (inactive) | GI50 [9]: 23 µM (inactive) | GI50 [10]: 28.7 µM (inactive) | GI50 [15]: 15.3 µM (inactive) | GI50 [11]: 12.3 µM (inactive) | GI50 [12]: 15.2 µM (inactive) | GI50 [13]: 9.91 µM (inactive)

NC(=O)Cn1c(=O)[nH]c(=O)c2[nH]cnc21
GI50 [14]: > 100 µM (inactive) | GI50 [1]: > 100 µM (inactive) | GI50 [2]: > 100 µM (inactive) | GI50 [4]: > 100 µM (inactive) | GI50 [5]: > 100 µM (inactive) | GI50 [6]: > 100 µM (inactive) | GI50 [7]: > 100 µM (inactive) | GI50 [8]: > 100 µM (inactive) | GI50 [9]: > 100 µM (inactive) | GI50 [10]: > 100 µM (inactive) | GI50 [11]: > 100 µM (inactive) | GI50 [12]: > 100 µM (inactive) | GI50 [16]: > 100 µM (inactive) | GI50 [13]: > 100 µM (inactive)

N#CN=C(NCCO)NCCO
GI50 [14]: > 100 µM (inactive) | GI50 [1]: > 100 µM (inactive) | GI50 [4]: > 100 µM (inactive) | GI50 [5]: > 100 µM (inactive) | GI50 [6]: > 100 µM (inactive) | GI50 [7]: 45.1 µM (inactive) | GI50 [8]: > 100 µM (inactive) | GI50 [9]: > 100 µM (inactive) | GI50 [10]: > 100 µM (inactive) | GI50 [15]: > 100 µM (inactive) | GI50 [11]: > 100 µM (inactive) | GI50 [12]: > 100 µM (inactive) | GI50 [13]: > 100 µM (inactive)

CCOC(=O)CCC(NC(=O)OCc1ccccc1)C(=O)NC(CCC(=O)OCC)C(=O)NC(CCC(=O)OCC)C(=O)NC(CCC(=O)OCC)C(=O)NC(CCC(=O)OCC)C(=O)NC(Cc1ccc([N+](=O)[O-])cc1)C(=O)NC(CCC(=O)OCC)C(=O)NC(CCC(=O)OCC)C(=O)NC(CCC(=O)OCC)C(=O)NC(CCC(=O)OCC)C(=O)NC(CCC(=O)OCC)C(=O)OCC (stereo not given) (Cbz-E(OEt)E(OEt)E(OEt)E(OEt)E(OEt)[Phe(4-NO2)]E(OEt)E(OEt)E(OEt)E(OEt)E(OEt)-OEt; configuration not given here)
GI50 [17]: > 50 µM (inactive) | GI50 [2]: > 50 µM (inactive) | GI50 [3]: > 50 µM (inactive) | GI50 [4]: > 50 µM (inactive) | GI50 [5]: > 50 µM (inactive) | GI50 [6]: > 50 µM (inactive) | GI50 [18]: > 50 µM (inactive) | GI50 [9]: > 50 µM (inactive) | GI50 [10]: > 50 µM (inactive) | GI50 [11]: > 50 µM (inactive) | GI50 [19]: > 50 µM (inactive) | GI50 [20]: > 50 µM (inactive) | GI50 [12]: > 50 µM (inactive) | GI50 [16]: > 50 µM (inactive) | GI50 [13]: > 50 µM (inactive)

O=C(O)CNC(=O)c1ccccc1O [SALICYLURIC ACID]
GI50 [17]: > 100 µM (inactive) | GI50 [2]: > 100 µM (inactive) | GI50 [3]: > 100 µM (inactive) | GI50 [4]: > 100 µM (inactive) | GI50 [5]: > 100 µM (inactive) | GI50 [6]: > 100 µM (inactive) | GI50 [18]: > 100 µM (inactive) | GI50 [9]: > 100 µM (inactive) | GI50 [10]: > 100 µM (inactive) | GI50 [11]: > 100 µM (inactive) | GI50 [19]: > 100 µM (inactive) | GI50 [20]: > 100 µM (inactive) | GI50 [12]: > 100 µM (inactive) | GI50 [16]: > 100 µM (inactive) | GI50 [13]: > 100 µM (inactive)

COc1ccc2nc(-c3ccc(O)cc3)ccc2c1
GI50 [14]: > 100 µM (inactive) | GI50 [1]: > 100 µM (inactive) | GI50 [2]: > 100 µM (inactive) | GI50 [4]: > 100 µM (inactive) | GI50 [5]: > 100 µM (inactive) | GI50 [6]: > 100 µM (inactive) | GI50 [7]: > 100 µM (inactive) | GI50 [8]: > 100 µM (inactive) | GI50 [9]: > 100 µM (inactive) | GI50 [10]: > 100 µM (inactive) | GI50 [15]: 97.1 µM (inactive) | GI50 [11]: > 100 µM (inactive) | GI50 [12]: > 100 µM (inactive) | GI50 [16]: > 100 µM (inactive) | GI50 [13]: > 100 µM (inactive)

Cc1cccc(NC(=O)/C(=N\N)C(c2cnc3ccc([N+](=O)[O-])cc3n2)[N+](=O)[O-])c1C (stereo not given)
GI50 [14]: 71.8 µM (inactive) | GI50 [1]: 51.3 µM (inactive) | GI50 [2]: > 100 µM (inactive) | GI50 [4]: > 100 µM (inactive) | GI50 [5]: > 100 µM (inactive) | GI50 [7]: > 100 µM (inactive) | GI50 [8]: > 100 µM (inactive) | GI50 [9]: > 100 µM (inactive) | GI50 [10]: > 100 µM (inactive) | GI50 [11]: 40.2 µM (inactive) | GI50 [12]: > 100 µM (inactive) | GI50 [16]: > 100 µM (inactive) | GI50 [13]: > 100 µM (inactive)

C=C1[C@H](OC(C)=O)[C@H]2[C@@H](OC(C)=O)[C@@H](C)C[C@]2(C)C(=O)[C@H](C)/C=C/C(C)(C)C(=O)[C@H](OCC(C)C)[C@H]1OC(C)=O
GI50 [17]: > 25 µM (inactive) | GI50 [2]: > 25 µM (inactive) | GI50 [3]: > 25 µM (inactive) | GI50 [4]: 12.6 µM (inactive) | GI50 [5]: > 25 µM (inactive) | GI50 [6]: > 25 µM (inactive) | GI50 [18]: > 25 µM (inactive) | GI50 [9]: 19.6 µM (inactive) | GI50 [10]: > 25 µM (inactive) | GI50 [11]: > 25 µM (inactive) | GI50 [19]: > 25 µM (inactive) | GI50 [20]: > 25 µM (inactive) | GI50 [12]: 19.5 µM (inactive) | GI50 [16]: > 25 µM (inactive) | GI50 [13]: 20.7 µM (inactive)

O=C(N/N=C/c1cc(Br)cc(Br)c1O)c1ccccc1O
GI50 [14]: 2 µM (inactive) | GI50 [2]: 1.07 µM (active) | GI50 [4]: 0.64 µM (active) | GI50 [5]: 0.32 µM (active) | GI50 [6]: 0.723 µM (active) | GI50 [9]: 0.61 µM (active) | GI50 [10]: 0.773 µM (active) | GI50 [11]: 0.311 µM (active) | GI50 [12]: 0.832 µM (active) | GI50 [13]: 0.575 µM (active)

CC(=O)OC1CCC2(C)C3CCC4(C)C(c5ccc(=O)oc5)CC5OC54C3CCC2(O)C1 (stereo not given)
GI50 [14]: 2.15 µM (inactive) | GI50 [1]: 0.109 µM (active) | GI50 [2]: 0.714 µM (active) | GI50 [3]: 2.31 µM (inactive) | GI50 [4]: 0.579 µM (active) | GI50 [5]: 4.72 µM (inactive) | GI50 [6]: 5.81 µM (inactive) | GI50 [7]: 0.461 µM (active) | GI50 [8]: 2.21 µM (inactive) | GI50 [9]: 0.75 µM (active) | GI50 [10]: 1.21 µM (inactive) | GI50 [15]: 1.14 µM (inactive) | GI50 [11]: 0.53 µM (active) | GI50 [12]: 0.811 µM (active) | GI50 [13]: 0.348 µM (active)
